# In patent publication US9187424B1, “Aryl dihydropyridinones and piperidinone MGAT2 inhibitors” (Bristol-Myers Squibb Company, priority 2011, dated 2015):
# Molecular target: Human MGAT-2 (Homo sapiens (Human), UniProt Q3SYC2)
# Test: MGAT LCMS Assay (human MGAT-2);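 note: diolein product quantified by LC/MS with positive APCI, expressed as peak area ratio versus an internal standard, and this ratio used to derive IC50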
# Assay type: biochemical
# Conditions: human MGAT-2 membranes expressed in Sf9 cells; 2-oleoylglycerol and oleoyl-Coenzyme A; read-out: h-MGAT2 IC50 (nM) LCMS Assay
# Human MGAT-2, sequence (Q3SYC2 whole entry): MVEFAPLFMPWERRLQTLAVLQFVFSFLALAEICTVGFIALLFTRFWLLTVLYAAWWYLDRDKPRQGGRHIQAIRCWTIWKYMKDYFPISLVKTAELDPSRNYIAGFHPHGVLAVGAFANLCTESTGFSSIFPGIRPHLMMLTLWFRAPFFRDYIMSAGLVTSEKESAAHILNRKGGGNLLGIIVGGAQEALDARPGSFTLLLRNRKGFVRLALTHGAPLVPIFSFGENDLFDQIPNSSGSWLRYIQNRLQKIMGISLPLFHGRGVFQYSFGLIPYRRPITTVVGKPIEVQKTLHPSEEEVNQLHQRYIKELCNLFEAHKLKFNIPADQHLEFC
row,IC50 [nM],Compound
1,5120,Cc1ccc(C2=C(NC(=O)c3cocn3)C(=O)NC(c3ccc(OCCCC(F)(F)F)cc3)(C(F)(F)F)C2)cc1 (stereo not shown) [Example 151]
2,252,Cc1ccc(C2=C(NC(=O)c3cnco3)C(=O)NC(c3ccc(OCCCC(F)(F)F)cc3)(C(F)(F)F)C2)cc1 (stereo not shown) [Example 152]
3,247,Cc1ccc(C2=C(NC(=O)c3cnccn3)C(=O)NC(c3ccc(OCCCC(F)(F)F)cc3)(C(F)(F)F)C2)cc1 (stereo not shown) [Example 153]
4,484,CCCCCCNC(=O)c1ccc(C2(C(F)(F)F)CC(c3ccc(C)cc3)=C(C(=O)Nc3ccc(OC)cc3)C(=O)N2)cc1 (stereo not shown) [Example 155]
5,254,Cc1ccc(C2=C(c3nnn[nH]3)C(=O)NC(c3ccc(OCCCC(F)(F)F)cc3)(C(F)(F)F)C2)c(C)c1 (stereo not shown) [Example 156]
6,16700,Cc1ccc(C2=C(n3cnnn3)C(=O)NC(c3ccc(OCCCC(F)(F)F)cc3)(C(F)(F)F)C2(F)F)cc1 (stereo not shown) [Example 159]
7,5400,Cc1ccc(C2=C(C#N)C(=O)NC(c3ccc(OCCCC(F)(F)F)cc3)(C(F)(F)F)C2(F)F)cc1 (stereo not shown) [Example 160]
8,1260,CCCCCNC(=O)c1ccc(C2(C)CC(c3ccc(C)cc3)=C(C(=O)Nc3ccc(OC)cc3)C(=O)N2)cc1 (stereo not shown) [Example 161]
9,214,COc1ccc(C(=O)NC2=C(c3ccc(C)cc3)C(F)(F)C(c3ccc(OCCC(F)(F)F)cc3)(C(F)(F)F)NC2=O)cc1 (stereo not shown) [Example 162]
10,162,COc1ccc(C(=O)NC2=C(c3ccc(C)cc3)C(F)(F)C(c3ccc(OCCCCC(F)(F)F)cc3)(C(F)(F)F)NC2=O)cc1 (stereo not shown) [Example 164]
11,113,Cc1ccc(C2=C(NC(=O)c3ccccc3Cl)C(=O)NC(c3ccc(OCCCC(F)(F)F)cc3)(C(F)(F)F)C2)cc1 (stereo not shown) [Example 168]
12,421,Cc1ccc(C2=C(NC(=O)c3cccc(Cl)c3)C(=O)NC(c3ccc(OCCCC(F)(F)F)cc3)(C(F)(F)F)C2)cc1 (stereo not shown) [Example 169]
13,210,Cc1ccc(C2=C(NC(=O)c3ccc(F)cc3Cl)C(=O)NC(c3ccc(OCCCC(F)(F)F)cc3)(C(F)(F)F)C2)cc1 (stereo not shown) [Example 170]
14,264,COc1ccc(NC(=O)C2=C(c3ccc(C)cc3)CC(C)(C(=O)NCCCc3ccccc3)NC2=O)cc1 (stereo not shown) [Example 175]
15,3,COc1ccc(C2=C(NC(=O)c3cc(C)no3)C(=O)NC(c3ccc(OCCCC(F)(F)F)cc3)(C(F)(F)F)C2)cc1 (stereo not shown) [Example 176]
16,399,CCCCCCCCNC(=O)C1(C)CC(c2ccc(C)cc2)=C(C#N)C(=O)N1 (stereo not shown) [Example 177]
17,2050,COc1ccc(NC(=O)C2=C(c3ccc(C)cc3)C(F)(F)C(c3ccc(OC)cc3)(C(F)(F)F)NC2=O)cc1 (stereo not shown) [Example 181]
18,2050,COc1ccc(Cn2cc(C3(C(F)(F)F)CC(c4ccc(C)cc4)=C(c4nn[nH]n4)C(=O)N3)cn2)cc1 (stereo not shown) [Example 182]
19,76,Cc1ccc(C2=C(C#N)C(=O)NC(c3ccc(OCCCCCC(F)(F)F)cc3)(C(F)(F)F)C2)cc1 (stereo not shown) [Example 184]
20,121,Cc1ccc(C2=C(NC(=O)c3cc(-c4ccccc4Cl)no3)C(=O)NC(c3ccc(OCCCC(F)(F)F)cc3)(C(F)(F)F)C2)cc1 (stereo not shown) [Example 185]
21,229,Cc1ccc(C2=C(n3cnnc3C)C(=O)NC(c3ccc(OCCCC(F)(F)F)cc3)(C(F)(F)F)C2)cc1 (stereo not shown) [Example 186]
22,4,COc1cc(C(=O)NC2=C(c3ccc(C)cc3)CC(c3ccc(OCCCC(F)(F)F)cc3)(C(F)(F)F)NC2=O)on1 (stereo not shown) [Example 187]
23,1520,COc1ccc(NC(=O)C2=C(c3ccc(C)cc3)CC(C)(C(=O)NCC(C)C)NC2=O)cc1 (stereo not shown) [Example 188]
24,1160,COc1ccc(NC(=O)C2=C(c3ccc(C)cc3)CC(C)(C(=O)NCc3ccccc3)NC2=O)cc1 (stereo not shown) [Example 189]
25,155,Cc1ccc(C2=C(NC(=O)c3cc(-c4cccc(F)c4)no3)C(=O)NC(c3ccc(OCCCC(F)(F)F)cc3)(C(F)(F)F)C2)cc1 (stereo not shown) [Example 190]

row,IC50 [nM],Compound
1,797,CCCCCCC(=O)CNC(=O)C1(C)CC(c2ccc(C)cc2)=C(NC(=O)c2ccc(OC)cc2)C(=O)N1 (stereo not shown) [Example 191]
2,433,Cc1ccc(C2=C(NC(=O)n3ncnn3)C(=O)NC(c3ccc(OCCCC(F)(F)F)cc3)(C(F)(F)F)C2)cc1 (stereo not shown) [Example 192]
3,46,COc1ccc(C2=C(c3nn[nH]n3)C(=O)NC(c3ccc(OCCCC(F)(F)F)cc3)(C(F)(F)F)C2)cc1 (stereo not shown) [Example 193]
4,6,CCCCCC#CC1(C(F)(F)F)CC(c2ccc(C)cc2)=C(c2cn[nH]n2)C(=O)N1 (stereo not shown) [Example 194]
5,33,CCCCCCCC#CC1(C(F)(F)F)CC(c2ccc(C)cc2)=C(c2cn[nH]n2)C(=O)N1 (stereo not shown) [Example 195]
6,826,CCCCCCCC#CC1(C(F)(F)F)CC(c2ccc(C)cc2)=C(c2cn[nH]n2)C(=O)N1 (stereo not shown) [Example 196]
7,178,Cc1ccc(C2=C(c3cn[nH]n3)C(=O)NC(C#CC3CC3)(C(F)(F)F)C2)cc1 (stereo not shown) [Example 197]
8,16,Cc1ccc(C2=C(c3cn[nH]n3)C(=O)NC(C#CCCc3ccccc3)(C(F)(F)F)C2)cc1 (stereo not shown) [Example 198]
9,16,Cc1ccc(C2=C(c3cn[nH]n3)C(=O)NC(C#CCCC(C)C)(C(F)(F)F)C2)cc1 (stereo not shown) [Example 199]
10,37,Cc1ccc(C2=C(NC(=O)c3ccc(OC(F)(F)F)cc3)C(=O)NC(c3cnn(CCCCCC(F)(F)F)c3)(C(F)(F)F)C2)cc1 (stereo not shown) [Example 200]
11,24,Cc1ccc(C2=C(NC(=O)c3ccc(OC(F)F)cc3)C(=O)NC(c3cnn(CCCCCC(F)(F)F)c3)(C(F)(F)F)C2)cc1 (stereo not shown) [Example 201]
12,89,COCc1ccc(C2=C(c3nn[nH]n3)C(=O)NC(c3ccc(OCCCC(F)(F)F)cc3)(C(F)(F)F)C2)cc1 (stereo not shown) [Example 202]
13,59,CCOCc1ccc(C2=C(c3nn[nH]n3)C(=O)NC(c3ccc(OCCCC(F)(F)F)cc3)(C(F)(F)F)C2)cc1F (stereo not shown) [Example 203]
14,13,O=C1NC(c2ccc(OCCCC(F)(F)F)cc2)(C(F)(F)F)CC(c2ccc(OC(F)F)cc2)=C1c1nn[nH]n1 (stereo not shown) [Example 205]
15,11,O=C1NC(c2ccc(OCCCC(F)(F)F)cc2)(C(F)(F)F)CC(c2ccc3ccccc3c2)=C1c1nn[nH]n1 (stereo not shown) [Example 207]
16,30,CCOc1ccc(C2=C(c3nn[nH]n3)C(=O)NC(c3ccc(OCCCC(F)(F)F)cc3)(C(F)(F)F)C2)cc1 (stereo not shown) [Example 208]
17,37,O=C1NC(c2ccc(OCCCC(F)(F)F)cc2)(C(F)(F)F)CC(c2ccc3c(c2)OCCO3)=C1c1nn[nH]n1 (stereo not shown) [Example 209]
18,2,O=C1NC(c2ccc(OCCCC(F)(F)F)cc2)(C(F)(F)F)CC(c2ccc3c(c2)CCCC3)=C1c1nn[nH]n1 (stereo not shown) [Example 210]
19,97,O=C1NC(c2ccc(OCCCC(F)(F)F)cc2)(C(F)(F)F)CC(c2ccc3c(c2)OCO3)=C1c1nn[nH]n1 (stereo not shown) [Example 211]
20,416,COc1ccc(C2=C(c3nn[nH]n3)C(=O)NC(c3ccc(OCCCC(F)(F)F)cc3)(C(F)(F)F)C2)c2c1CCC2 (stereo not shown) [Example 212]
21,1100,Cc1ccc(C2=C(c3nn[nH]n3)C(=O)NC(c3ccc(OCCCC(F)(F)F)cc3)(C(F)F)C2)cc1 (stereo not shown) [Example 213]
22,12,COc1ccc(C(=O)NC2=C(c3ccc(C)cc3)CC(c3ccc(OCCCC(F)(F)F)cc3)NC2=O)cc1 (stereo not shown) [Example 214]
23,11,COc1ccc(C2=C(C#N)C(=O)NC(c3ccc(OCCCC(F)(F)F)cc3)(C(F)(F)F)C2)cc1C (stereo not shown) [Example 215]
24,440,COc1ccc(C2=C(C#N)C(=O)NC(c3ccc(OCCCC(F)(F)F)cc3)(C(F)(F)F)C2)cc1OC (stereo not shown) [Example 216]
